{"source": "patent US20090325959A1", "about": "(priority 2008, published 2009)", "key": {"[1]": {"molecular_target": "T1, ROCK2 (Homo sapiens, UniProt O75116)", "T1 construct": "purchased Upstate/Chemicon 14-451", "T1 sequence (O75116 11-552 limits assumed)": "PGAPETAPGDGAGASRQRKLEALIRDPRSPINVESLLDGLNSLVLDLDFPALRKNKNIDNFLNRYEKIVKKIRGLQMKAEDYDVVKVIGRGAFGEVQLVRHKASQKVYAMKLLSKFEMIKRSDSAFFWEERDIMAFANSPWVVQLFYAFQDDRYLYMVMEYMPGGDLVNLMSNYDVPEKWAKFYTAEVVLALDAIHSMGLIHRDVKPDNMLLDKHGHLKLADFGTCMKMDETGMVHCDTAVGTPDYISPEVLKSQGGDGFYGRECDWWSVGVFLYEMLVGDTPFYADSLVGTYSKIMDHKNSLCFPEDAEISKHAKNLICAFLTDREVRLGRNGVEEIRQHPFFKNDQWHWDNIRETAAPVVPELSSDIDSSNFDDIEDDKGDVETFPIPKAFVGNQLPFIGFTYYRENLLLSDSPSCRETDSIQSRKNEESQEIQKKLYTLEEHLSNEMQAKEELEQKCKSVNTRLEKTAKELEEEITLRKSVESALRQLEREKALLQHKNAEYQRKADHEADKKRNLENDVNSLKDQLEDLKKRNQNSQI", "experiment": "Rho kinase inhibition assay (IMAP fluorescence polarization), ROCK2;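 also: kinase reaction started with 10 µM ATP and run 60 min at room temperature, then phosphorylated substrate captured on IMAP beads for 30 min and fluorescence polarization read in mP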", "format": "biochemical", "protocol": "(§1) Following the pre-incubation, 10 μM ATP was added to initiate the reaction. After 60 minutes at room temperature, Molecular Devices IMAP™ binding solution was added to bind phosphorylated substrate. After 30 minutes of incubation in the presence of the IMAP™ beads, the fluorescence polarization was read and the ratio was reported as mP. IC50 values for compounds and EC50 values for ATP were calculated using the Prism software from Graphpad."}, "[2]": {"experiment": "Compound plasma concentrations in unsensitized mice at 15 min post administration", "format": "in vivo", "conditions": "mouse, 15 μmol/kg; mean compound plasma concentration in mice at 15 minutes post oral administration; read-out: Mouse Oral PK"}, "[3]": {"molecular_target": "T2, ROCK1 (Homo sapiens, UniProt Q13464)", "T2 construct": "purchased Upstate/Chemicon 14-601", "T2 sequence (Q13464 17-535 limits assumed)": "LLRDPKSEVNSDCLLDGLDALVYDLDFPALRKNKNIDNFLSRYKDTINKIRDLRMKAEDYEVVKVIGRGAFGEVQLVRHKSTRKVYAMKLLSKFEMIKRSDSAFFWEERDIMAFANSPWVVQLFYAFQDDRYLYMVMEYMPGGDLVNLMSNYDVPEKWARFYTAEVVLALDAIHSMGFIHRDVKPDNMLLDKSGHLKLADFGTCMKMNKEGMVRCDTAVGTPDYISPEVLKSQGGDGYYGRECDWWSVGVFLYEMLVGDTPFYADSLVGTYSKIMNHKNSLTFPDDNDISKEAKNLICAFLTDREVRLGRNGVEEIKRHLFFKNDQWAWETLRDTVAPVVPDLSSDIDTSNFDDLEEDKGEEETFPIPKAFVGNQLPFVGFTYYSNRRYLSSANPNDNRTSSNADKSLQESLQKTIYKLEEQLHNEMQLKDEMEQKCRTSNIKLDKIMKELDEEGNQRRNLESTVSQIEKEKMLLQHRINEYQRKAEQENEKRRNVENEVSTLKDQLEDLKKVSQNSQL", "experiment": "Rho kinase inhibition assay (IMAP fluorescence polarization), ROCK1;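 also: kinase reaction run 60 min at room temperature, then phosphorylated substrate captured on IMAP beads for 30 min, with fluorescence polarization read in mP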", "format": "biochemical", "protocol": "as §1"}, "[4]": {"molecular_target": "T3, p70S6K human enzyme (Homo sapiens, UniProt P23443, T412E)", "T3 construct": "purchased Upstate Chemicon 14-486", "T3 sequence (P23443 1-421 T412E limits assumed)": "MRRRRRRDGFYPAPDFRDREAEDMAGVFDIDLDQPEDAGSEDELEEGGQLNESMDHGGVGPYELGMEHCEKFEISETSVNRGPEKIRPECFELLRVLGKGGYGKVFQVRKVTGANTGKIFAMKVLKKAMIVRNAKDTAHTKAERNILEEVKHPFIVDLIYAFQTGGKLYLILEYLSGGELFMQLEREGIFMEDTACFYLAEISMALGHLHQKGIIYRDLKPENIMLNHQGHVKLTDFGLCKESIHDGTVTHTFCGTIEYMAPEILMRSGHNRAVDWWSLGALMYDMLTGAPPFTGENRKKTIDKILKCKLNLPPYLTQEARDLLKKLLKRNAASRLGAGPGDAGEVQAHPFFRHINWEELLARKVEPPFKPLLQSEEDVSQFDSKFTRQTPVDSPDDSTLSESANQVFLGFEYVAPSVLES", "experiment": "p70S6K inhibition assay (IMAP FP);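 also: kinase reaction run at room temperature, phosphorylated substrate captured on IMAP beads and read as fluorescence polarization in mP, IC50 then converted to Ki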", "format": "biochemical", "protocol": "Inhibition of Akt3 and p70S6K activity was determined using the IMAP™ FP Progressive Binding Kit (Molecular Devices product number R8127). […] Following the pre-incubation, 30 μM ATP was added to initiate the reaction. After 60 minutes at RT, Molecular Devices IMAP™ binding solution was added to bind phosphorylated substrate. After 30 minutes of incubation in the presence of the IMAP™ beads the fluorescence polarization was read and the ratio was reported as mP. IC50 results were calculated using the Prism software from Graphpad. The Ki values were determined according to the following formula: Ki=IC50/(1+([ATP Challenge]/EC50 ATP))."}, "[5]": {"molecular_target": "T4, Akt3 human enzyme (Homo sapiens, UniProt Q9Y243)", "T4 construct": "purchased Upstate Chemicon 14-502", "T4 sequence (Q9Y243 whole entry)": "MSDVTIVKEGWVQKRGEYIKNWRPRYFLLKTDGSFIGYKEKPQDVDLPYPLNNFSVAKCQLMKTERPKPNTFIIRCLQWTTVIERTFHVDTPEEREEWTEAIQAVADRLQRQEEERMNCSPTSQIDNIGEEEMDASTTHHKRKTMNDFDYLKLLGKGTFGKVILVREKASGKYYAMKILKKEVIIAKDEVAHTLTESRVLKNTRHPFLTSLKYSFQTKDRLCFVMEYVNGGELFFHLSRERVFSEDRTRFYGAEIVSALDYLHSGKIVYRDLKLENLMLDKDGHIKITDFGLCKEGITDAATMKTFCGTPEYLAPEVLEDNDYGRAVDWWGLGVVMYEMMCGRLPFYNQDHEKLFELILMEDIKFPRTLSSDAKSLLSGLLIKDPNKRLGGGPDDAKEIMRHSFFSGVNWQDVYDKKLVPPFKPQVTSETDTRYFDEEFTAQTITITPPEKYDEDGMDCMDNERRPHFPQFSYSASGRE", "experiment": "Akt3 inhibition assay (IMAP FP);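 also: kinase reaction run 60 min at room temperature after 30 µM ATP start, phosphorylated substrate captured on IMAP beads and read as fluorescence polarization (mP)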", "format": "biochemical"}, "[6]": {"conditions": "10 μM ATP, read-out: ROCK2 Ki, Avg"}, "[7]": {"conditions": "30 μM ATP, Ki=IC50/(1+([ATP Challenge]/EC50 ATP)), read-out: p70S6K Ki, Avg"}, "[8]": {"conditions": "average Ki, read-out: p70S6K Ki"}, "[9]": {"conditions": "30 μM ATP, Ki=IC50/(1+([ATP Challenge]/EC50 ATP)), read-out: Akt3 Ki, Avg"}}, "note": "pKi: −log10 of the molar value. Where two headings read alike, the source gives them in different places.", "data": [{"smiles": "Clc1ccc(CN2CCC[C@H](Nc3ccc4[nH]ncc4c3)C2)cc1", "note": "[Compound 1.141, (S)-N-(1-(4-chlorobenzyl)piperidin-3-yl)-1H-indazol-5-amine]", "values": [{"measurement": "pKi", "setting": "[1]; [6]", "value": 8.42}, {"measurement": "pKi", "setting": "[1]; average Ki, read-out: ROCK2 Ki", "value": 8.42}, {"measurement": "concentration at 15 min", "setting": "[2]", "value": 1640, "unit": "nM"}, {"measurement": "pKi", "setting": "[3]; Avg, 10 μM ATP", "value": 7.55}, {"measurement": "pKi", "setting": "[3]; average Ki", "value": 7.55}, {"measurement": "pKi", "setting": "[4]; [7]", "value": 6.41}, {"measurement": "pKi", "setting": "[4]; [8]", "value": 6.41}, {"measurement": "pKi", "setting": "[5]; [9]", "value": 5.90}, {"measurement": "pKi", "setting": "[5]; average Ki, read-out: Akt3 Ki", "value": 5.90}]}, {"smiles": "c1cc2cc(CN3CCC[C@H](Nc4ccc5[nH]ncc5c4)C3)ccc2[nH]1", "note": "[Compound 1.149, (S)-N-(1-((1H-indol-5-yl)methyl)piperidin-3-yl)-1H-indazol-5-amine]", "values": [{"measurement": "pKi", "setting": "[1]; [6]", "value": 8.38}, {"measurement": "pKi", "setting": "[1]; average Ki, read-out: ROCK2 Ki", "value": 8.38}, {"measurement": "concentration at 15 min", "setting": "[2]", "value": 1560, "unit": "nM"}, {"measurement": "pKi", "setting": "[3]; Avg, 10 μM ATP", "value": 7.33}, {"measurement": "pKi", "setting": "[3]; average Ki", "value": 7.33}, {"measurement": "pKi", "setting": "[4]; [7]", "value": 5.72}, {"measurement": "pKi", "setting": "[4]; [8]", "value": 5.72}, {"measurement": "pKi", "setting": "[5]; [9]", "value": 5.13}, {"measurement": "pKi", "setting": "[5]; average Ki, read-out: Akt3 Ki", "value": 5.13}]}, {"smiles": "c1cc2cc(CN3CCC[C@H](Nc4ccc5[nH]ncc5c4)C3)ccc2o1", "note": "[Compound 1.150, (S)-N-(1-(benzofuran-5-ylmethyl)piperidin-3-yl)-1H-indazol-5-amine]", "values": [{"measurement": "pKi", "setting": "[1]; [6]", "value": 8.49}, {"measurement": "pKi", "setting": "[1]; average Ki, read-out: ROCK2 Ki", "value": 8.49}, {"measurement": "concentration at 15 min", "setting": "[2]", "value": 1390, "unit": "nM"}, {"measurement": "pKi", "setting": "[3]; Avg, 10 μM ATP", "value": 7.48}, {"measurement": "pKi", "setting": "[3]; average Ki", "value": 7.48}, {"measurement": "pKi", "setting": "[4]; [7]", "value": 5.89}, {"measurement": "pKi", "setting": "[4]; [8]", "value": 5.89}, {"measurement": "pKi", "setting": "[5]; [9]", "value": 5.50}, {"measurement": "pKi", "setting": "[5]; average Ki, read-out: Akt3 Ki", "value": 5.50}]}, {"smiles": "Cc1ccc(CN2CCC[C@H](Nc3ccc4[nH]ncc4c3)C2)cc1OCCO", "note": "[Compound 1.152, (S)-2-(5-((3-(1H-indazol-5-ylamino)piperidin-1-yl)methyl)-2-methylphenoxy)ethanol]", "values": [{"measurement": "pKi", "setting": "[1]; [6]", "value": 8.48}, {"measurement": "pKi", "setting": "[1]; average Ki, read-out: ROCK2 Ki", "value": 8.48}, {"measurement": "concentration at 15 min", "setting": "[2]", "value": 435, "unit": "nM"}, {"measurement": "pKi", "setting": "[3]; Avg, 10 μM ATP", "value": 7.70}, {"measurement": "pKi", "setting": "[3]; average Ki", "value": 7.70}, {"measurement": "pKi", "setting": "[4]; [7]", "value": 6.28}, {"measurement": "pKi", "setting": "[4]; [8]", "value": 6.28}, {"measurement": "pKi", "setting": "[5]; [9]", "value": 5.70}, {"measurement": "pKi", "setting": "[5]; average Ki, read-out: Akt3 Ki", "value": 5.70}]}, {"smiles": "C#Cc1cccc(CN2CCC[C@H](Nc3ccc4[nH]ncc4c3)C2)c1", "note": "[Compound 1.153, (S)-N-(1-(3-ethynylbenzyl)piperidin-3-yl)-1H-indazol-5-amine]", "values": [{"measurement": "pKi", "setting": "[1]; [6]", "value": 8.38}, {"measurement": "pKi", "setting": "[1]; average Ki, read-out: ROCK2 Ki", "value": 8.38}, {"measurement": "concentration at 15 min", "setting": "[2]", "value": 522, "unit": "nM"}, {"measurement": "pKi", "setting": "[3]; Avg, 10 μM ATP", "value": 7.20}, {"measurement": "pKi", "setting": "[3]; average Ki", "value": 7.20}, {"measurement": "pKi", "setting": "[4]; [7]", "value": 5.62}, {"measurement": "pKi", "setting": "[4]; [8]", "value": 5.62}, {"measurement": "pKi", "setting": "[5]; [9]", "value": 5.00}, {"measurement": "pKi", "setting": "[5]; average Ki, read-out: Akt3 Ki", "value": 5.00}]}, {"smiles": "Cc1ccc(CN2CCC[C@H](Nc3ccc4[nH]ncc4c3)C2)c(C)c1", "note": "[Compound 1.155, (S)-N-(1-(2,4-dimethylbenzyl)piperidin-3-yl)-1Hindazol-5-amine]", "values": [{"measurement": "pKi", "setting": "[1]; [6]", "value": 8.15}, {"measurement": "pKi", "setting": "[1]; average Ki, read-out: ROCK2 Ki", "value": 8.15}, {"measurement": "concentration at 15 min", "setting": "[2]", "value": 32, "unit": "nM"}, {"measurement": "pKi", "setting": "[3]; Avg, 10 μM ATP", "value": 7.34}, {"measurement": "pKi", "setting": "[3]; average Ki", "value": 7.34}, {"measurement": "pKi", "setting": "[4]; [7]", "value": 5.76}, {"measurement": "pKi", "setting": "[4]; [8]", "value": 5.76}, {"measurement": "pKi", "setting": "[5]; [9]", "value": 5.25}, {"measurement": "pKi", "setting": "[5]; average Ki, read-out: Akt3 Ki", "value": 5.25}]}, {"smiles": "Cc1cccc(CN2CCC[C@H](Nc3ccc4[nH]ncc4c3)C2)c1C", "note": "[Compound 1.156, (S)-N-(1-(2,3-dimethylbenzyl)piperidin-3-yl)-1H-indazol-5-amine]", "values": [{"measurement": "pKi", "setting": "[1]; [6]", "value": 7.89}, {"measurement": "pKi", "setting": "[1]; average Ki, read-out: ROCK2 Ki", "value": 7.89}, {"measurement": "concentration at 15 min", "setting": "[2]", "value": 88, "unit": "nM"}, {"measurement": "pKi", "setting": "[3]; Avg, 10 μM ATP", "value": 6.87}, {"measurement": "pKi", "setting": "[3]; average Ki", "value": 6.87}, {"measurement": "pKi", "setting": "[4]; [7]", "value": 5.49}, {"measurement": "pKi", "setting": "[4]; [8]", "value": 5.49}, {"measurement": "pKi", "setting": "[5]; [9]", "value": 5.06}, {"measurement": "pKi", "setting": "[5]; average Ki, read-out: Akt3 Ki", "value": 5.06}]}, {"smiles": "CS(=O)(=O)Cc1cccc(CN2CCC[C@H](Nc3ccc4[nH]ncc4c3)C2)c1", "note": "[Compound 1.157, (S)-N-(1-(3-(methylsulfonylmethyl)benzyl)piperidin-3-yl)-1H-indazol-5-amine]", "values": [{"measurement": "pKi", "setting": "[1]; [6]", "value": 8.06}, {"measurement": "pKi", "setting": "[1]; average Ki, read-out: ROCK2 Ki", "value": 8.06}, {"measurement": "concentration at 15 min", "setting": "[2]", "value": 357, "unit": "nM"}, {"measurement": "pKi", "setting": "[3]; Avg, 10 μM ATP", "value": 6.58}, {"measurement": "pKi", "setting": "[3]; average Ki", "value": 6.58}, {"measurement": "pKi", "setting": "[4]; [7]", "value": 5.06}, {"measurement": "pKi", "setting": "[4]; [8]", "value": 5.06}, {"measurement": "pKi", "setting": "[5]; [9]", "value": 4.53}, {"measurement": "pKi", "setting": "[5]; average Ki, read-out: Akt3 Ki", "value": 4.53}]}]}
